Measurements published in patent US12337001B2, “Neutral endopeptidase (NEP) and human soluble endopeptidase (hSEP) inhibitors to reduce detrimental effects of perfusion deficiency of parenchymal organs” (priority 2018, dated 2025).

System: rats subjected to transient bilateral occlusion of the common carotid artery (BCCA)
Assay: Open field test of exploratory performance after transient bilateral occlusion of the common carotid artery (BCCA)
Type: in vivo, rat
Settings: for Ambulation / Blocks (episodes of interest in blocks) / Defecation / Grooming / Rearing: 60 mg/kg/d s.c. osmotic minipump, open field 5 min, x ± SEM
[1] = BCCA + (6) group, 60 mg/kg/d, 5 days after BCCA
[2] = BCCA + (6): BCCA 30 min, 5 days after BCCA
[3] = Control + (6) group (reference = 100)
[4] = Control + (6): sham-operated Wistar rats

For `O=C(O)CN1C(=O)[C@@H](NC(=O)C2(C[C@@H](CCc3ccccc3)C(=O)O)CCCC2)CCc2ccccc21` [Compound (6), (2R)-2-{[1-({[(3S)-1-(carboxymethyl)-2-oxo-2,3,4,5-tetrahydro-1H-1-benzazepin-3-yl]amino}carbonyl)cyclopentyl]methyl}-4-phenylbutanoic acid], the “Ambulation, % of sham-operated controls” value [1] was 94.81%, the “Blocks (episodes of interest in blocks), % of sham-operated controls” value [1] was 103.80% and the “Defecation, % of sham-operated controls” value [1] was 82.54%. For the same compound, the “Grooming, % of sham-operated controls” value [1] was 112.83%, the “Rearing, % of sham-operated controls” value [1] was 104.62% and the Ambulation [2] was 2741 ± 4.25 (n). The “Blocks (episodes of interest in blocks)” value [2] was 7.64 ± 2.54 (n), the Defecation [2] was 1.04 ± 0.45 (n) and the Grooming [2] was 5.98 ± 1.06 (n). The Rearing [2] was 12.01 ± 3.86 (n), the “Ambulation, % of Control + (6)” value [3] was 100% and the “Blocks, % of Control + (6)” value [3] was 100%. For the same compound, the “Defecation, % of Control + (6)” value [3] was 100%, the “Grooming, % of Control + (6)” value [3] was 100% and the “Rearing, % of Control + (6)” value [3] was 100%. The Ambulation [4] was 28.91 ± 5.13 (n), the “Blocks (episodes of interest in blocks)” value [4] was 7.36 ± 2.85 (n) and the Defecation [4] was 1.26 ± 0.45 (n). The Grooming [4] was 5.30 ± 1.57 (n), the Rearing [4] was 11.48 ± 3.51 (n) and the “Exploratory performance in rats subjected to BCCA” value (open field test, 60 mg/kg/d, result in words, 60 mg/kg/day) was “statistically significant improvement”.
